# Laboratory results as given in patent US20090239944A1, “Novel Use of Organic Compounds” (priority 2005, published 2009).
# Key:
# [1] = test system: C3H10T1/2 cells; experiment: Glucose uptake of adipocytes (radioactive 2-deoxyglucose, basal, absence of insulin); type: cell-based; conditions: 48-h treatment; for Basal glucose uptake: absence of insulin, ± SEM, DMSO control = 100%; for Basal glucose uptake (result in words): different concentrations
# Protocol: C3H10T1/2 cells (ATCC CCL-226) were grown for 5 days to confluence in DMEM supplemented with 10% FBS medium and induced with a mixture of insulin, dexamethasone and 3-isobutyl-1-methylxanthine to differentiate into adipocytes. Nine days after the beginning of induction, cells were treated for 48-h with the compound of the formula I-1 at different concentrations as shown in Table 1. Glucose uptake was determined using radioactive 2-deoxyglucose (10 μM 2-DG in HBS+0.5 μCi/ml of 3-[H]-2-DG), measuring glucose uptake in the absence of insulin. Basal glucose uptake was increased by 48-h treatment with the compound of the formula I-1 in a dose-dependent manner (Table 1). Growing, induction and treatment of C3H10T1/2 cells were exactly as described in Example 1, with the exception that the compound of the formula I-3 at different concentrations was used instead of the compound of the formula I-1. […] Control: C3H10T1/2 cells treated for 48 h with DMSO at the same concentration as compound-treated cells and set at 100%
# [2] = test system: C3H10T1/2 cells; experiment: Differentiation of adipocytes (oil Red O staining, absorbance at 540 nm); type: cell-based; conditions: for Differentiation of the cells into adipocytes (result in words): co-treatment with insulin, compared with insulin alone; for Mean OD ± SEM (oil Red O, 540 nm): 10-day treatment
# Protocol: C3H10T1/2 cells were grown to confluence as described in Example 1, then treated for 10 days with insulin alone (negative control) or with a mixture of insulin and the compound of the formula I-1 at different concentrations (see Table 2), with re-feeding with fresh medium and compounds every 48-h. After 10-days of treatment, the cells were stained with oil Red O as follows: cells were washed 2× in PBS and fixed in 10% formalin at room temperature for 1 h. After removal of formalin, 200 μl of oil Red O staining solution (3:2 mixture of 0.5% w/v oil Red O stock solution and water) was applied to each well. The cells were incubated for 20 min at room temperature, washed twice in 2×PBS and incubated for 10 min with 300 μl of isopropanol/well for oil Red O extraction. Quantification of oil Red O was determined by measuring absorbance at 540 nm (mean OD). […] C3H10T1/2 cells were grown and treated as described in Example 4 with the exception that the compound of the formula I-2 was used instead of the compound of the formula I-1. The measurement of adipocyte differentiation using the oil Red O assay was performed as described in Example 4. […] C3H10T1/2 cells were grown and treated as described in Example 4 with the exception that the compound of the formula I-3 was used instead of the compound of the formula I-1. The measurement of adipocyte differentiation using the oil Red O assay was performed as described in Example 4.
# [3] = test system: C57BLKS/J db/db mice; experiment: Glucose tolerance, 14-day study in db/db mice (blood glucose, OGTT, FFA); type: in vivo
# Protocol: The efficacy of the compound of the formula I-1 on glucose tolerance was tested in a 14-day study in C57BLKS/J db/db mice (n=10/group), a model of late type 2 diabetes mellitus with severe hyperglycemia.
# Male db/db mice were obtained from Jackson Laboratory (Bar Harbor, Me., USA). Adult mice aged 8 weeks were used in the experiment. Mice were housed individually in plastic cages with bedding and allowed free access to standard rodent food and tap water. The animal rooms were controlled for temperature (24° C.), humidity (55%), and light (12-h light-dark cycle). The animals were randomized in two groups and the compound of the formula I-1 was administered orally to one of the groups for 14 days at a dose of 200 mg/kg BW/day. After 14 days of treatment the concentration of glucose was determined in blood from fed animals, i.e., animals which were not restricted from food. After a period of 10 days of treatment an oral glucose tolerance test (OGTT) was performed. For the OGTT mice were fasted overnight and then a 1-g glucose/kg BW solution was orally administered. Blood samples were taken before and 15, 30, 45, 60, 90, 120, 150, 180 min after the glucose challenge for determination of blood glucose levels and then the area under the curve (AUC) was determined. Blood glucose was measured by a glucose analyzer (Glucotrend Premium, Roche Diagnostics, Rotkreuz, Switzerland). The glucose and the free fatty acid (FFA) levels of fed animals (see above) were lowered after 14 days of treatment with the compound of the formula I-1. After 10 days of treatment with the compound of the formula I-1 the glucose levels of fasted animals, i.e., animals with an overnight fasting (see above) were decreased as compared to the untreated control group.
# [4] = compound 1 × 10^−5 M + insulin 1 × 10^−7 M
# [5] = after 14 days of treatment, 200 mg/kg BW/day orally
compound,measurement,setting,value
"CC1(COc2ccc(CC3SC(=O)NC3=O)cc2)CCCCC1 (centres unmarked) [Ciglitazone, ciglitazone, reference compound]",Basal glucose uptake,[1]; 5 × 10^−5 M,496.178 ± 61.86 % of control
COc1ccc(C(=O)/C=C/c2c(CCN(C)C(C)=O)cc3c(c2OC)OCO3)cc1 [I-1],Basal glucose uptake,[1]; 1 × 10^−5 M,94.58 ± 0.95 % of control
same,Basal glucose uptake,[1]; 1 × 10^−6 M,97.6 ± 22.9 % of control
same,Basal glucose uptake,[1]; 2.4 × 10^−5 M,128.6 ± 0.89 % of control
same,Basal glucose uptake,[1]; 5 × 10^−4 M,194.058 ± 0.05 % of control
same,Basal glucose uptake (result in words),[1],increased
same,Differentiation of the cells into adipocytes (result in words),[2],higher differentiation of the cells into adipocytes than insulin alone
same,"Mean OD ± SEM (oil Red O, 540 nm)",[2]; [4],0.69 ± 0.019
same,glucose AUC of an OGTT (result in words),"[3]; 1 g glucose/kg body weight, day 10",significantly reduced
same,Glucose AUC,"[3]; OGTT (1 g glucose/kg BW) on day 10, 0-180 min, 200 mg/kg BW/day orally, control 69673",54295
same,glucose levels of fasted animals (result in words),"[3]; after 10 days of treatment, compared to the untreated control group",decreased
same,free fatty acid (FFA) levels of fed animals (result in words),[3]; [5],lowered
same,glucose levels of fed animals (result in words),[3]; [5],lowered
same,blood glucose levels during the OGTT (result in words),"[3]; compared with the control group, 15-180 min after glucose challenge",lower at all time points
same,Blood Glucose Fasted,"[3]; db/db mice, 200 mg/kg BW/day orally, after 10 days, overnight fasting, control 175",135 mg/dL
same,FFA,"[3]; db/db mice, 200 mg/kg BW/day orally, after 14 days, fed animals, control 15.95",12.38 mg/dL
same,Blood Glucose Fed,"[3]; db/db mice, 200 mg/kg BW/day orally, after 14 days, fed animals, control 859",771 mg/dL
COc1ccc(C(=O)/C=C/c2cccc(OC(=O)/C=C/c3ccccc3)c2)cc1 [I-2],Differentiation of the cells into adipocytes (result in words),[2],higher differentiation of the cells into adipocytes than insulin alone
same,"Mean OD ± SEM (oil Red O, 540 nm)",[2]; [4],0.45 ± 0.037
"Insulin: insulin alone, negative control of the adipocyte differentiation test","Mean OD ± SEM (oil Red O, 540 nm)",[2]; insulin 1 × 10^−7 M alone (negative control),0.28 ± 0.03
COc1ccc(/C=C/C(=O)c2ccc(OC(=O)c3ccccc3)cc2)cc1OC [I-3],Basal glucose uptake,[1]; 1 × 10^−5 M,133.28 ± 23.4 % of control
same,Basal glucose uptake,[1]; 1 × 10^−6 M,105.37 ± 2.21 % of control
same,Basal glucose uptake,[1]; 2 × 10^−4 M,142.84 ± 18.05 % of control
same,Basal glucose uptake,[1]; 5 × 10^−5 M,116.17 ± 15.96 % of control
same,Basal glucose uptake (result in words),[1],increase
same,Differentiation of the cells into adipocytes (result in words),[2],higher differentiation of the cells into adipocytes than insulin alone
same,"Mean OD ± SEM (oil Red O, 540 nm)",[2]; [4],0.53 ± 0.025
same,"Mean OD ± SEM (oil Red O, 540 nm)",[2]; compound 2 × 10^−4 M + insulin 1 × 10^−7 M,0.34 ± 0.087
same,"Mean OD ± SEM (oil Red O, 540 nm)",[2]; compound 5 × 10^−5 M + insulin 1 × 10^−7 M,0.53 ± 0.017
